pEC50: −log10 of the molar value.
Experiments:
[1] = biological target: ligand binding domain of thyroid hormone receptor beta (Homo sapiens (Human), UniProt P10828); test: Thyroid hormone receptor TR-FRET binding assay (TRβ LBD); details: TRβ LBD 2 nM
Protocol: (§1) TR-FRET binding assay was used to test representative compounds herein.
(§2) The ligand binding domain of thyroid hormone receptor alpha and the ligand binding domain of thyroid hormone receptor beta with GST tag were purchased from Invitrogen. Biotin-SRC2-2 coactivator peptide was purchased from Sangon Biotech, Europium anti-GST and Streptavidin-D2 was from Cisbio.
(§3) Five microliters of 4× compound serial dilution was added in the 384-well plate, white, low volume, round-bottom assay plate. […] Centrifuge the assay plates at 1000 g for 1 min and incubate 1 hr at RT, protected from light. […] Calculate EC50 by fitting % Activity values and log of compound concentrations to nonlinear regression (dose response—variable slope) with Graphpad 5.0.

[2] = biological target: ligand binding domain of thyroid hormone receptor alpha (Homo sapiens (Human), UniProt P10827); test: Thyroid hormone receptor TR-FRET binding assay (TRα LBD); details: TRα LBD 4 nM
Protocol: as §1, §2, §3

[3] = biological target: TRβ-GAL4 binding domain chimeric receptors (Homo sapiens (Human), UniProt P10828); test: Thyroid hormone receptor cell assay (GAL4 luciferase reporter in HEK293-LUC cells); assay type: cell-based
Excerpt: TRα-LBD or TRβ-LBD, coding sequence was inserted into pBIND expression vector (Promega, E1581) to express TRβ-GAL4 binding domain chimeric receptors. This expression vector was transfected into HEK293-LUC host cells with reporter vector (pGL4.35 which carry a stably integrated GAL4 promoter driven luciferase reporter gene). Upon agonist binding to the corresponding TRa-GAL4 or TRb-GAL4 chimeric receptor, the chimeric receptor binds to the GAL4 binding sites and stimulates the reporter gene.
Seed 2.5×10^6 HEK293-LUC cells into a 60 mm dish and incubated for 16 h at 37° C. under 5% CO2 atmosphere. Mix 12 microliters of Lipo LTX reagent in 250 microliters of Opti-MEM Medium by inversion. Mix 6 ug of DNA in 250 uL of Opti-MEM medium, then add 6 uL of Lipo PLUS Reagent. Add diluted DNA to each tube of diluted Lipo LTX Reagent (1:1 ratio), and mix by Pipettor and incubate at room temperature for 10 min. The reagent mixture was added to a 60 mm dish, incubated with cells for 4-7 h at 37 degrees under 5% CO2 atmosphere.
75 nL compound was added into 384 well assay plate using ECHO550 and then add HEK293-LUC cells (transfected, 17,000 cells/well) into the plate using phenol red-free DMEM containing 5% charcoal/dextran-treated FBS and incubated for 16-20 h at […] under 5% CO2 atmosphere. Add 25 uL of Steady-Glo Luciferase Assay Reagent into each well. Shake for 5 min and then record the luminescence value on Envision 2104 plate reader.

Chain of TRβ-GAL4 binding domain chimeric receptors (P10828 217-461, stated change not applied): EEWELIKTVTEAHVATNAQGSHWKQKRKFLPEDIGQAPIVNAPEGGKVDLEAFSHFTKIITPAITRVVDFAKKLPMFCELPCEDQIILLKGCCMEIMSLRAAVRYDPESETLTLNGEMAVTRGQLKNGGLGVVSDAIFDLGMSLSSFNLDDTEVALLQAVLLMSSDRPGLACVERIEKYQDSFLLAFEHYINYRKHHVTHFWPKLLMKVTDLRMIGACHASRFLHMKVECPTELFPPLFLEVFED
Chain of ligand binding domain of thyroid hormone receptor beta (P10828 217-461): as the sequence (P10828 217-461, stated change not applied) above
Chain of ligand binding domain of thyroid hormone receptor alpha (P10827 other isoform, or with tags, fused parts or gaps del 1-162, other chains not shown): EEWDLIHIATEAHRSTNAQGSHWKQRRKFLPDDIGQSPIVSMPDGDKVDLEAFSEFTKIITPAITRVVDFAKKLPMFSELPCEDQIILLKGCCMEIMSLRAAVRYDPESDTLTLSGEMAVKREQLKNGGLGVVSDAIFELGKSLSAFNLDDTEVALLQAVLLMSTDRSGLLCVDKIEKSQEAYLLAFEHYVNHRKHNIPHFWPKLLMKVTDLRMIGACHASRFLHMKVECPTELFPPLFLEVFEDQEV

Row | pEC50 [1] | pEC50 [2] | pEC50 [3] | SMILES
1 | 6.30 | – | – | CC(c1ccccc1)c1cc(Oc2c(Cl)cc(-n3nc(C#N)c(=O)[nH]c3=O)cc2C(F)(F)F)n[nH]c1=O (racemic) [Compound 94]
2 | 6.59 | – | – | CC(c1cc(Oc2c(Cl)cc(-n3nc(C#N)c(=O)[nH]c3=O)cc2C(F)(F)F)n[nH]c1=O)C1CCCCC1 (racemic) [Compound 97]
3 | 6.52 | 4.84 | 6.34 | Cc1nn(-c2cc(Cl)c(Oc3cc([C@@H](C)c4ccccc4)c(=O)[nH]n3)c(Cl)c2)c(=O)[nH]c1=O (single isomer, unassigned) [Compound 71]
4 | 5.46 | 4.05 | – | Cc1nn(-c2cc(Cl)c(Oc3cc([C@H](C)c4ccccc4)c(=O)[nH]n3)c(Cl)c2)c(=O)[nH]c1=O (single isomer, unassigned) [Compound 72]
5 | 6.80 | 5.95 | 6.57 | Cc1nn(-c2cc(Cl)c(Oc3cc(C(C)C4CCCCC4)c(=O)[nH]n3)c(Cl)c2)c(=O)[nH]c1=O (single isomer, unassigned) [Compound 75]
6 | 5.98 | 4.36 | – | Cc1nn(-c2cc(Cl)c(Oc3cc(C(C)C4CCCCC4)c(=O)[nH]n3)c(Cl)c2)c(=O)[nH]c1=O (single isomer, unassigned) [Compound 76]
7 | 5.49 | – | – | CC(c1ccccc1)c1cc(Oc2c(Cl)cc(-n3nc(C#N)c(=O)[nH]c3=O)cc2Cl)n[nH]c1=O (single isomer, unassigned) [Compound 88]
8 | 6.44 | – | – | CC(c1ccccc1)c1cc(Oc2c(Cl)cc(-n3nc(C#N)c(=O)[nH]c3=O)cc2Cl)n[nH]c1=O (single isomer, unassigned) [Compound 89]
9 | 6.54 | – | 4.87 | CC(c1cc(Oc2c(Cl)cc(-n3nc(C#N)c(=O)[nH]c3=O)cc2Cl)n[nH]c1=O)C1CCCCC1 (single isomer, unassigned) [Compound 92]
10 | 5.81 | – | – | CC(c1cc(Oc2c(Cl)cc(-n3nc(C#N)c(=O)[nH]c3=O)cc2Cl)n[nH]c1=O)C1CCCCC1 (single isomer, unassigned) [Compound 93]
11 | 6.62 | – | – | CC(c1ccccc1)c1cc(Oc2c(Cl)cc(-n3nc(C#N)c(=O)[nH]c3=O)cc2C(F)(F)F)n[nH]c1=O (single isomer, unassigned) [Compound 95]
12 | 6.08 | – | – | CC(c1ccccc1)c1cc(Oc2c(Cl)cc(-n3nc(C#N)c(=O)[nH]c3=O)cc2C(F)(F)F)n[nH]c1=O (single isomer, unassigned) [Compound 96]
13 | – | – | 5.26 | CC(c1cc(Oc2c(Cl)cc(-n3nc(C#N)c(=O)[nH]c3=O)cc2C(F)(F)F)n[nH]c1=O)C1CCCCC1 (single isomer, unassigned) [Compound 98]
14 | – | – | 4.73 | CC(c1cc(Oc2c(Cl)cc(-n3nc(C#N)c(=O)[nH]c3=O)cc2C(F)(F)F)n[nH]c1=O)C1CCCCC1 (single isomer, unassigned) [Compound 99]
15 | 6.27 | 5.24 | 5.15 | N#Cc1nn(-c2cc(Cl)c(Oc3cc(C4CC4)c(=O)[nH]n3)c(Cl)c2)c(=O)[nH]c1=O [Compound 1]
16 | 6.12 | 4.44 | 5.01 | N#Cc1nn(-c2cc(Cl)c(Oc3cc(C4CCCC4)c(=O)[nH]n3)c(Cl)c2)c(=O)[nH]c1=O [Compound 2]
17 | 6.09 | 4.44 | 4.91 | N#Cc1nn(-c2cc(Cl)c(Oc3cc(C4CCCCC4)c(=O)[nH]n3)c(Cl)c2)c(=O)[nH]c1=O [Compound 4]
18 | < 5.00 | < 5.00 | – | N#Cc1nn(-c2ccc(Oc3cc(C4CC4)c(=O)[nH]n3)c(Cl)c2)c(=O)[nH]c1=O [Compound 6]
19 | 6.92 | 5.87 | – | Cc1nn(-c2cc(Br)c(Oc3cc(C4CCC4)c(=O)[nH]n3)c(Br)c2)c(=O)[nH]c1=O [Compound 13]
20 | < 4.05 | < 4.05 | – | CC(=O)N1CCC(c2cc(Oc3c(Cl)cc(-n4nc(C#N)c(=O)[nH]c4=O)cc3Cl)n[nH]c2=O)CC1 [Compound 19]
21 | < 5.00 | < 5.00 | – | N#Cc1nn(-c2cc(Cl)c(Oc3cc(-c4ccccc4)c(=O)[nH]n3)c(Cl)c2)c(=O)[nH]c1=O [Compound 24]
22 | < 5.00 | < 5.00 | – | N#Cc1nn(-c2cc(Cl)c(Oc3cc(CCc4ccccc4)c(=O)[nH]n3)c(Cl)c2)c(=O)[nH]c1=O [Compound 26]
23 | < 4.05 | < 4.05 | – | N#Cc1nn(-c2cc(Cl)c(Oc3cc(Cc4cccc(O)c4)c(=O)[nH]n3)c(Cl)c2)c(=O)[nH]c1=O [Compound 34]
24 | 4.93 | < 4.05 | – | CC(C)c1cc(Oc2c(Cl)cc(-n3nc(C4CC4)c(=O)[nH]c3=O)cc2Cl)n[nH]c1=O [Compound 36]

Row | pEC50 [1] | pEC50 [2] | pEC50 [3] | SMILES
25 | < 4.05 | < 4.05 | – | CC(C)c1cc(Oc2c(Cl)cc(-n3nc(C(C)C)c(=O)[nH]c3=O)cc2Cl)n[nH]c1=O [Compound 38]
26 | 5.38 | < 5.00 | – | Cc1cc(-n2nc(C#N)c(=O)[nH]c2=O)c(F)c(C)c1Oc1cc(C(C)C)c(=O)[nH]n1 [Compound 45]
27 | 6.64 | 5.49 | – | Cc1nn(-c2cc(Cl)c(Oc3cc(Cc4ccc(Cl)cc4)c(=O)[nH]n3)c(Cl)c2)c(=O)[nH]c1=O [Compound 49]
28 | 5.06 | < 4.05 | – | N#Cc1nn(-c2cc(Cl)c(Oc3cc(CC4CCC(O)CC4)c(=O)[nH]n3)c(Cl)c2)c(=O)[nH]c1=O (centres unmarked) [Compound 50]
29 | < 4.05 | < 4.05 | – | N#Cc1nn(-c2cc(Cl)c(Oc3cc(CC4CCC(O)C4)c(=O)[nH]n3)c(Cl)c2)c(=O)[nH]c1=O (centres unmarked) [Compound 51]
30 | 8.00 | 5.86 | – | Cc1nn(-c2cc(Cl)c(Oc3cc(Cc4ccc(O)cc4)c(=O)[nH]n3)c(Cl)c2)c(=O)[nH]c1=O [Compound 53]
31 | 5.97 | 5.07 | – | Cc1nn(-c2cc(Cl)c(Oc3cc(CC4CCC(O)CC4)c(=O)[nH]n3)c(Cl)c2)c(=O)[nH]c1=O (centres unmarked) [Compound 55]
32 | 5.79 | 4.05 | – | N#Cc1nn(-c2cc(Cl)c(Oc3cc(Cc4ccccc4O)c(=O)[nH]n3)c(Cl)c2)c(=O)[nH]c1=O [Compound 57]
33 | 6.72 | 5.93 | – | Cc1nn(-c2cc(Cl)c(Oc3cc(CC4CCCC4)c(=O)[nH]n3)c(Cl)c2)c(=O)[nH]c1=O [Compound 59]
34 | 6.82 | 4.81 | – | Cc1nn(-c2cc(Cl)c(Oc3cc(C(C)C4CCCCC4)c(=O)[nH]n3)c(Cl)c2)c(=O)[nH]c1=O (centres unmarked) [Compound 61]
35 | 6.62 | 4.05 | – | N#Cc1nn(-c2cc(Cl)c(Oc3cc(Cc4ccccc4)c(=O)[nH]n3)c(C(F)(F)F)c2)c(=O)[nH]c1=O [Compound 64]
36 | 6.11 | 5.11 | – | Cc1nn(-c2cc(Cl)c(Oc3cc(Cc4cccc(F)c4)c(=O)[nH]n3)c(Cl)c2)c(=O)[nH]c1=O [Compound 68]
37 | 5.58 | 4.05 | – | COc1ccccc1Cc1cc(Oc2c(Cl)cc(-n3nc(C)c(=O)[nH]c3=O)cc2Cl)n[nH]c1=O [Compound 69]
38 | 4.37 | 4.05 | – | CC(C)c1cc(Oc2c(Cl)cc(CCP(=O)(O)O)cc2Cl)n[nH]c1=O [Compound 70]
39 | 4.05 | 4.05 | – | N#Cc1nn(-c2cc(Cl)c(Oc3cc(C4CCN(Cc5ccccc5)CC4)c(=O)[nH]n3)c(Cl)c2)c(=O)[nH]c1=O [Compound 77]
40 | 6.09 | 4.57 | – | Cc1nn(-c2cc(Br)c(Oc3cc(C(=O)c4ccccc4)c(=O)[nH]n3)c(Br)c2)c(=O)[nH]c1=O [Compound 78]
41 | 5.63 | 4.05 | – | N#Cc1nn(-c2cc(Cl)c(Sc3cc(Cc4ccccc4)c(=O)[nH]n3)c(Cl)c2)c(=O)[nH]c1=O [Compound 80]
42 | 6.18 | – | – | CC(C)c1c[nH]c2ncc(Oc3c(Cl)cc(-n4nc(C#N)c(=O)[nH]c4=O)cc3Cl)cc12 [Compound 84]
43 | < 4.05 | – | – | Cc1cc(OCP(=O)(O)O)cc(C)c1Cc1cc(C(C)C)c(=O)[nH]n1 [Compound 85]
44 | < 4.05 | – | – | CC(O)(CO)c1ccc(Cc2cc(Oc3c(Cl)cc(-n4nc(C#N)c(=O)[nH]c4=O)cc3Cl)n[nH]c2=O)cc1 (centres unmarked) [Compound 86]
45 | 5.92 | – | – | N#Cc1nn(-c2cc(Cl)c(Oc3ccc4[nH]cc(C(N)=O)c4c3)c(Cl)c2)c(=O)[nH]c1=O [Compound 87]
46 | 6.74 | – | 5.56 | CC(C)c1n[nH]c2ccc(Oc3c(Cl)cc(-n4nc(C#N)c(=O)[nH]c4=O)cc3Cl)cc12 [Compound 90]
47 | 6.37 | – | 5.36 | CC(C)c1nn(-c2c(Cl)cc(-n3nc(C#N)c(=O)[nH]c3=O)cc2Cl)c2ccc(O)cc12 [Compound 91]

— patent US12391677B2, “Thyroid hormone receptor agonists” (INVENTISBIO CO., LTD., priority 2018, dated 2025)
